Data taken from patent publication US12152010B2, “Preparation method for photo-activatable aggregation-induced emission probe with in-situ generation capability” (South China University of Technology, priority 2018, dated 2024).

Experiments:
MCF-7 cells = test: Photo-activatable fluorescence imaging under 405 nm laser in MCF-7 cells; format: cell-based; details: in-situ generated compound
[1] = system: HeLa cells or MCF-7 cells; test: Co-dyeing experiments with commercial organelle dyes; format: cell-based; details: co-dyeing with Nile Red, BODIPY493/503 or LysoTracker Red
HeLa cells [2] = test: Photo-activatable fluorescence imaging under 405 nm laser in HeLa cells; format: cell-based; details: in-situ generated compound
HeLa cells [3] = test: Photo-controlled high-spatiotemporal-resolution imaging, 780 nm two-photon laser, multicellular environment; format: cell-based; details: under photo-control
From the text: In-situ generated compound III could be used for photo-controlled high-spatiotemporal-resolution imaging. […] The photo-controlled high-spatiotemporal-resolution imaging capability of in-situ generated compound III was particularly useful for monitoring the movement of organelles and studying the physiological functions of organelles in complex physiological environments.

[4] = Fluorescence emission in tetrahydrofuran/water or tetrahydrofuran/toluene mixed solutions (aggregation-induced emission); format: physicochemical; details: tetrahydrofuran:water (IV-1 509 nm, IV-2 570 nm) or tetrahydrofuran:toluene (IV-3 532 nm), 10^−5 mol/L
From the text: (§1) Mixing tetrahydrofuran and water according to different volume ratios (tetrahydrofuran:water=100:0, 90:10, 80:20, 70:30, 60:40, 50:50, 40:60, 30:70, 20:80, 10:90, 8:92, 6:94, 4:96, 2:98, 1:99) to form mixed solutions with different water contents; dissolving compound IV-1 (i.e., method 2-compound IV-1) into these mixed solutions to make the concentration of the compound at 10′ mol/L, and then detecting the fluorescence emission spectrum, with the results as shown in FIG. 1.
as §1, with “IV-2” for “IV-1”, “IV-2)” for “IV-1)”, “[…]” for “10′”, “2.” for “1.”
The in-situ generated compound IV-2 (in-situ compound IV-2) had the same photophysical properties as method 2-compound IV-2.
Mixing tetrahydrofuran and toluene according to different volume ratios (tetrahydrofuran:toluene=100:0, 90:10, 80:20, 70:30, 60:40, 50:50, 40:60, 30:70, 20:80, 10:90, 5:95, 1:99) to form mixed solutions with different toluene contents; dissolving compound IV-3 (i.e., method 2-compound IV-3) into these mixed solutions to make the concentration of the compound at […], and then detecting the fluorescence emission spectrum, with the results as shown in FIG. 3.
The in-situ generated compound IV-3 (in-situ compound IV-3) had the same photophysical properties as method 2-compound IV-3.

[5] = Quantum yield, fluorescence lifetime, absorption and emission in tetrahydrofuran solution and solid (thin film) state; format: physicochemical; details: for Increase in fluorescence lifetime / Increase in quantum yield: thin film state relative to tetrahydrofuran solution
From the text: By measuring the quantum yield and fluorescence lifetime of compounds IV-1 (method 2-compound IV-1), IV-2 (method 2-compound IV-2) and IV-3 (method 2-compound IV-3) in tetrahydrofuran solution and solid state (thin film state)) (Table 1), the following results were found relative to the cases in the tetrahydrofuran solution: compound IV-1 in the thin film state increased by 94.4 times in the quantum yield, and increased by 6.0 times in the fluorescence lifetime; compound IV-2 in the thin film state increased by 33.4 times in the quantum yield, and increased by 5.2 times in the fluorescence lifetime; compound IV-3 in the thin film state increased by 25.8 times in the quantum yield, and increased by 4.1 times in the fluorescence lifetime; therefore, the aggregation-induced emission property of compound IV was confirmed. […] The in-situ compounds IV-1 to IV-3 also had the photophysical properties in Table 1.

[6] = tetrahydrofuran solution state (10^−5 mol/L)

Emission wavelength ([5]; solid state) | Fluorescence lifetime ([5]; solid state) | Quantum yield ([5]; solid state) | Absorption wavelength [5, 6] | Emission wavelength [5, 6] | Fluorescence lifetime [5, 6] | Quantum yield [5, 6] | Increase in fluorescence lifetime [5] | Increase in quantum yield [5] | SMILES | Fluorescence intensity increase (MCF-7 cells; irradiation time 10 min) | Organelle specificity of photo-activatable fluorescence imaging [1] | Fluorescence intensity increase (HeLa cells [2]; irradiation time 10 min) | Photo-controlled sequential activation of organelles in different cells (HeLa cells [3]) | Fluorescence intensity increase (MCF-7 cells; scanning time 50 s) | Fluorescence intensity increase (HeLa cells [2]; scanning time 50 s) | Ketoluminescence behaviour with increasing poor-solvent content [4]
 |  |  |  |  |  |  |  |  | Oc1ccccc1C1Nc2ccccc2S1 (centres unmarked) [Compound III-1, 2-(2,3-dihydrobenzo[d]thiazol-2-yl)phenol] | ~9.0 times of the initial value | lipid droplet specific photo-activatable fluorescence imaging | approximately 5.5 times of the initial value |  |  |  | 
 |  |  |  |  |  |  |  |  | COc1ccc(O)c(C2Nc3ccccc3S2)c1 (centres unmarked) [Compound III-2, 2-(2,3-dihydrobenzo[d]thiazol-2-yl)-4-methoxyphenol] | ~18 times of the initial value | lipid droplet specific photo-activatable fluorescence imaging | approximately 53 times of the initial value | could sequentially activate lipid droplets in different cells |  |  | 
 |  |  |  |  |  |  |  |  | Oc1ccc(CN2CCOCC2)cc1C1Nc2ccccc2S1 (centres unmarked) [Compound III-3, 2-(2,3-dihydrobenzo[d]thiazol-2-yl)-4-(morpholinomethyl)phenol] |  | lysosomal specific photo-activatable fluorescence imaging |  | could sequentially activate lysosomes in different cells | ~4.5 times of the initial value | approximately 6.2 times of the initial value | 
509 nm | 4.96 ns | 66.1% | 334 nm | 452 nm | 0.83 ns | 0.7% | 6.0 times | 94.4 times | Oc1ccccc1-c1nc2ccccc2s1 [Compound IV-1, 2-(benzo[d]thiazol-2-yl)phenol] |  |  |  |  |  |  | showing the aggregation-induced emission property
570 nm | 4.88 ns | 40.1% | 362 nm | 402 nm | 0.94 ns | 1.2% | 5.2 times | 33.4 times | COc1ccc(O)c(-c2nc3ccccc3s2)c1 [Compound IV-2, 2-(benzo[d]thiazol-2-yl)-4-methoxyphenol] |  |  |  |  |  |  | showing the aggregation-induced emission property
532 nm | 6.39 ns | 28.4% | 341 nm | 445 nm | 1.56 ns | 1.1% | 4.1 times | 25.8 times | Oc1ccc(CN2CCOCC2)cc1-c1nc2ccccc2s1 [Compound IV-3, 2-(benzo[d]thiazol-2-yl)-4-(morpholinomethyl)phenol] |  |  |  |  |  |  | showing the aggregation-induced emission property
